The values below come from ChEMBL document CHEMBL4052762, “Synthesis and biological evaluation of pyrrole-based chalcones as CYP1 enzyme inhibitors, for possible prevention of cancer and overcoming cisplatin resistance” (Bioorg Med Chem Lett, 2017).

A value given as a limit tells only on which side of the number the result lay.

The target of one experiment is Cytochrome P450 2D6 (Homo sapiens, UniProt P10635). Put plainly: Inhibition of human CYP2D6 bound to yeast microsomal membrane using 7-ethoxy-methyloxy-3-cyanocoumarin as substrate after 10 mins by fluorescence assay. It is filed as ADME.
Cytochrome P450 2D6, sequence (P10635 whole entry): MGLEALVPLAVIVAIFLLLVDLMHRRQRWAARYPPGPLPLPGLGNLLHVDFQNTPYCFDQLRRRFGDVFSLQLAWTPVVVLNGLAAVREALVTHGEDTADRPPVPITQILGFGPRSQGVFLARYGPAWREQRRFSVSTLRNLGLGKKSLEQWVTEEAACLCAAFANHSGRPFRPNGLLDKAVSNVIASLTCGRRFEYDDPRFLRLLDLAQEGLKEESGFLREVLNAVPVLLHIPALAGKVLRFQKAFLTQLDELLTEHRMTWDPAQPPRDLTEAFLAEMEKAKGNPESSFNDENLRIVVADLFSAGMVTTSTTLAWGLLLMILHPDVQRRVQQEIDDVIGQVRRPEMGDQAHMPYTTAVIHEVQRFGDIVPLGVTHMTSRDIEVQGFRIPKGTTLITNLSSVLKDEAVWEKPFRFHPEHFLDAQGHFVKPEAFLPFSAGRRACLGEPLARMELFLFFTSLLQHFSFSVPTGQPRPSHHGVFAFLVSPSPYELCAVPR
The next experiment addresses T1, Cytochrome P450 1A1 (Homo sapiens, UniProt P04798).
T1 sequence (P04798 whole entry): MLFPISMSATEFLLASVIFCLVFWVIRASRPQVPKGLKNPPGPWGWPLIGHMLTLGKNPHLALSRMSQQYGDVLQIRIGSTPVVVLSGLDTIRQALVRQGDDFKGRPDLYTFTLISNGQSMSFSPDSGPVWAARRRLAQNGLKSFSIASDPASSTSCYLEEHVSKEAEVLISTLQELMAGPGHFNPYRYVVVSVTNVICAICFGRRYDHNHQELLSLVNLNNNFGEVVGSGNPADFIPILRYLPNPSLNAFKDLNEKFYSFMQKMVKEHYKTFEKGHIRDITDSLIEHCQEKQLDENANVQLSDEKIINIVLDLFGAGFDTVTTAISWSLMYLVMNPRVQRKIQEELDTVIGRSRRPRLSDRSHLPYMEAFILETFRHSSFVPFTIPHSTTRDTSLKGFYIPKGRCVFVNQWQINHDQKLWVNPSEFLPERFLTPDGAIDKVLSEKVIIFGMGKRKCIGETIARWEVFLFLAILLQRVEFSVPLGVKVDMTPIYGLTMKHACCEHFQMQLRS
Description: Inhibition of human CYP1A1 bound to yeast microsomal membrane using 7-ethoxyresorufin as substrate after 10 mins by fluorescence assay.

In a further experiment the target is Cytochrome P450 3A4 (Homo sapiens, UniProt P08684). Description: Inhibition of human CYP3A4 bound to yeast microsomal membrane using dibenzylfluorescein as substrate after 10 mins by fluorescence assay. It is filed as ADME.
Cytochrome P450 3A4, sequence (P08684 whole entry): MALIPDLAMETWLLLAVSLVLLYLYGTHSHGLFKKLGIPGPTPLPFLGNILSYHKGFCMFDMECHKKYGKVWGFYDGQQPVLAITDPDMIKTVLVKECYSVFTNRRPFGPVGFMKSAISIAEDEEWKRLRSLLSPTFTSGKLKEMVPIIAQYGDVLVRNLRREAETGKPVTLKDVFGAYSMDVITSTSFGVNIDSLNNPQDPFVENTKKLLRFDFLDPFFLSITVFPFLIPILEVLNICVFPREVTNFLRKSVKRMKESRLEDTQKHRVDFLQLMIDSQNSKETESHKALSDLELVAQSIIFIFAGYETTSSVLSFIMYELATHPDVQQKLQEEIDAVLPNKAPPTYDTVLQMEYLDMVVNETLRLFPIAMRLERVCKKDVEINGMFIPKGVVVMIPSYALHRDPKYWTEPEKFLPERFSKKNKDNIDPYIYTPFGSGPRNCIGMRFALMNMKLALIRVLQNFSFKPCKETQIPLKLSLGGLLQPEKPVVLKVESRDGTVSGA
The next experiment concerns the target Cytochrome P450 2C9 (Homo sapiens, UniProt P11712). Description: Inhibition of human CYP2C9 bound to yeast microsomal membrane using 3-cyano-7-ethoxycoumarin as substrate after 10 mins by fluorescence assay. Format: ADME.
The next experiment concerns the target T2, Cytochrome P450 1B1 (Homo sapiens, UniProt Q16678).
T2 sequence (Q16678 whole entry): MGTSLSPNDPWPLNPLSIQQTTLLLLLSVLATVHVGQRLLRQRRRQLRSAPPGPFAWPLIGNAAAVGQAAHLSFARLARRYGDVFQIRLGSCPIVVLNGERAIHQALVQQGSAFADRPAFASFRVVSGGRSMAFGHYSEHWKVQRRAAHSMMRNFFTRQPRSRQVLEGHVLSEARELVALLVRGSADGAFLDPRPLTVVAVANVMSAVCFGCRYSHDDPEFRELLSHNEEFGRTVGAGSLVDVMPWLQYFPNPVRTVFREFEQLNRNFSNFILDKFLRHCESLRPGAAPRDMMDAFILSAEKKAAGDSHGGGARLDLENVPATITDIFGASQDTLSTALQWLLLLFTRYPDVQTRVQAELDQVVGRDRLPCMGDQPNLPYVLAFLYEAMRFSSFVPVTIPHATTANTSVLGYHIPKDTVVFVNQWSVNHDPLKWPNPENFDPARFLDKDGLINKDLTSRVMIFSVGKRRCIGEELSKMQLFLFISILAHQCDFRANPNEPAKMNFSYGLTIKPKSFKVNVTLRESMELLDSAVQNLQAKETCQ
Description: Inhibition of human CYP1B1 bound to yeast microsomal membrane using 7-ethoxyresorufin as substrate after 10 mins by fluorescence assay.

A further experiment deals with T3, Cytochrome P450 1A2 (Homo sapiens, UniProt P05177).
T3 sequence (P05177 whole entry): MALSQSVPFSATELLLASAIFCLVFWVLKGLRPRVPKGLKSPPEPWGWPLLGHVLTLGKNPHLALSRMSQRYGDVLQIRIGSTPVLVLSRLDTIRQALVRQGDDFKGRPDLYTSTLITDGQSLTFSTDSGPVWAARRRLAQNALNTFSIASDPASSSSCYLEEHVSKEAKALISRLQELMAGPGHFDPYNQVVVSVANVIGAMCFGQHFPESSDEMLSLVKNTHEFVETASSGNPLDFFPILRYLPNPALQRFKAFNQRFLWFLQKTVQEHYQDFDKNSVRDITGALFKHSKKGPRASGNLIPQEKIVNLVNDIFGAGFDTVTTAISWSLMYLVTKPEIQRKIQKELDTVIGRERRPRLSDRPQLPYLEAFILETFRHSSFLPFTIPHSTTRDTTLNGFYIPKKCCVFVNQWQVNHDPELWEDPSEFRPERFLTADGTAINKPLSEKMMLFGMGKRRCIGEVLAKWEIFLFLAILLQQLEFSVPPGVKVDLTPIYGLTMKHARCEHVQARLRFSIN
Put plainly: Inhibition of human CYP1A2 bound to yeast microsomal membrane using 3-cyano-7-ethoxycoumarin as substrate after 10 mins by fluorescence assay.

In a further experiment the target is Cytochrome P450 2C19 (Homo sapiens, UniProt P33261). Put plainly: Inhibition of human CYP2C19 bound to yeast microsomal membrane using 3-cyano-7-ethoxycoumarin as substrate after 10 mins by fluorescence assay. Format: ADME.
Cytochrome P450 2C19, sequence (P33261 whole entry): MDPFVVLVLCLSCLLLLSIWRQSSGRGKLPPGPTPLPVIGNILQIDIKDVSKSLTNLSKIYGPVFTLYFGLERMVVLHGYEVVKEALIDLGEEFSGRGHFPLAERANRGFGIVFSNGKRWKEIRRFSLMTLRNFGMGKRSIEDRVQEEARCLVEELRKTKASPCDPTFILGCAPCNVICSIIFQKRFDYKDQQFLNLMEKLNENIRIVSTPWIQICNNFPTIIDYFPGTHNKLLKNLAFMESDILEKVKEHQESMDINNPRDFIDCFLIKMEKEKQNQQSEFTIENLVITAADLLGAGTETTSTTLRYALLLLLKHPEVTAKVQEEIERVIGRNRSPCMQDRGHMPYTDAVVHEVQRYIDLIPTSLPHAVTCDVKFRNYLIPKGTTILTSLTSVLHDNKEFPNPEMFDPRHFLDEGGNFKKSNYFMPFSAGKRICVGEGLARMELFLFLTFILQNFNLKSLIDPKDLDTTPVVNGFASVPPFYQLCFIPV

Cytochrome P450 2C9, sequence (P11712 whole entry): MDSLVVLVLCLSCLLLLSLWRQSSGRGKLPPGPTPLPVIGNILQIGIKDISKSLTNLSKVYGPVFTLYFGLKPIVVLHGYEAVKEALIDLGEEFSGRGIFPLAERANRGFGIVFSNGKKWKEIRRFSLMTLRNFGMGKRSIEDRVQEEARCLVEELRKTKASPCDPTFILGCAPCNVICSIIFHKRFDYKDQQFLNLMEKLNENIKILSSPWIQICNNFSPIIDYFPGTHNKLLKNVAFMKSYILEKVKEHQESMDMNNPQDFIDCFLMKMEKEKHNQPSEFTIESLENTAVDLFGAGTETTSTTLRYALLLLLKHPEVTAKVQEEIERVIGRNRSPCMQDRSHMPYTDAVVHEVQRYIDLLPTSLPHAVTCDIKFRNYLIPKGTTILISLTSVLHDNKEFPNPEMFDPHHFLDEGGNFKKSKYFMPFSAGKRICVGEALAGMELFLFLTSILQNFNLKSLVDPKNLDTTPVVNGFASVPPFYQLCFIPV

In general, IC50 refers to the midpoint of a concentration-inhibition curve. As for `COc1ccc(/C=C/C(=O)c2ccc[nH]2)cc1`, the IC50 against Cytochrome P450 2D6 is 16 µM; on Cytochrome P450 1A1, over 20 µM; at Cytochrome P450 3A4, over 20 µM; at Cytochrome P450 2C9 it was over 20 µM; against Cytochrome P450 1B1, over 20 µM; against Cytochrome P450 1A2, 11.8 µM. Moreover, at Cytochrome P450 2C19, the IC50 is over 20 µM.
As to `O=C(/C=C/c1cc([N+](=O)[O-])ccc1Cl)c1ccc[nH]1`, the IC50 against Cytochrome P450 2D6 is 12 µM; at Cytochrome P450 1A1, over 20 µM; against Cytochrome P450 3A4, over 20 µM; against Cytochrome P450 2C9, over 20 µM; against Cytochrome P450 1B1 it was over 20 µM; on Cytochrome P450 1A2, 10.9 µM. In addition, the IC50 against Cytochrome P450 2C19 is over 20 µM.
Take `COc1cccc(/C=C/C(=O)c2ccc[nH]2)c1`: the IC50 against Cytochrome P450 2D6 is 11 µM; on Cytochrome P450 1A1, 6.2 µM; against Cytochrome P450 3A4 it was over 20 µM; on Cytochrome P450 2C9 it was over 20 µM; on Cytochrome P450 1B1 it was 5.2 µM; against Cytochrome P450 1A2, 1.5 µM. Further, on Cytochrome P450 2C19, the IC50 was over 20 µM.
As for `CCc1ccc(/C=C/C(=O)c2ccc[nH]2)o1`, the IC50 against Cytochrome P450 2D6 was 17 µM; against Cytochrome P450 1A1, over 20 µM; against Cytochrome P450 3A4 it was over 20 µM; on Cytochrome P450 2C9 it was over 20 µM; against Cytochrome P450 1B1, 9.2 µM; at Cytochrome P450 1A2, 2.5 µM. On Cytochrome P450 2C19, this compound yielded an IC50 of over 20 µM.
As for `COc1cc(/C=C/C(=O)c2ccc[nH]2)cc(OC)c1`, the concentration for half-maximal inhibition (IC50) is 15 µM against Cytochrome P450 2D6; 6.1 µM on Cytochrome P450 1A1; over 20 µM against Cytochrome P450 3A4; over 20 µM against Cytochrome P450 2C9; over 20 µM against Cytochrome P450 1B1; 9 µM against Cytochrome P450 1A2. For the same compound, the IC50 on Cytochrome P450 2C19 was over 20 µM.
With `COc1cccc(OC)c1/C=C/C(=O)c1ccc[nH]1`, the IC50 was 18 µM against Cytochrome P450 2D6; 10.8 µM against Cytochrome P450 1A1; over 20 µM against Cytochrome P450 3A4; over 20 µM against Cytochrome P450 2C9; over 20 µM against Cytochrome P450 1B1; 10 µM on Cytochrome P450 1A2. For the same compound, the IC50 on Cytochrome P450 2C19 is over 20 µM.
On to `O=C(/C=C/c1cccc(Br)c1)c1ccc[nH]1`, for which the IC50 at Cytochrome P450 2D6 was 14 µM; against Cytochrome P450 1A1 it was over 20 µM; against Cytochrome P450 3A4, over 20 µM; at Cytochrome P450 2C9, over 20 µM; against Cytochrome P450 1B1, 13 µM; at Cytochrome P450 1A2 it was over 20 µM. Besides, the IC50 on Cytochrome P450 2C19 was over 20 µM.
For `O=C(O)c1ccc(/C=C/C(=O)c2ccc[nH]2)cc1`, the IC50 against Cytochrome P450 2D6 was 18 µM; against Cytochrome P450 1A1 it was over 20 µM; at Cytochrome P450 3A4 it was over 20 µM; against Cytochrome P450 2C9, over 20 µM; against Cytochrome P450 1B1, over 20 µM; on Cytochrome P450 1A2, over 20 µM. Also, the IC50 against Cytochrome P450 2C19 is over 20 µM.
Turning to `O=C(/C=C/c1ccccc1F)c1ccc[nH]1`, the IC50 was 16 µM against Cytochrome P450 2D6; over 20 µM against Cytochrome P450 1A1; over 20 µM against Cytochrome P450 3A4; over 20 µM against Cytochrome P450 2C9; 2.7 µM at Cytochrome P450 1B1; 2.2 µM at Cytochrome P450 1A2. At Cytochrome P450 2C19, this compound yielded an IC50 of over 20 µM.
With `O=C(/C=C/C=C/c1ccccc1)c1ccc[nH]1`, the IC50 at Cytochrome P450 2D6 was 12 µM; against Cytochrome P450 1A1, over 20 µM; on Cytochrome P450 3A4, over 20 µM; against Cytochrome P450 2C9, over 20 µM; at Cytochrome P450 1B1, over 20 µM; against Cytochrome P450 1A2 it was 10.5 µM. The compound also gave an IC50 against Cytochrome P450 2C19 of over 20 µM.
`O=C(/C=C/c1c2ccccc2cc2ccccc12)c1ccc[nH]1`: the IC50 on Cytochrome P450 2D6 was 12 µM; against Cytochrome P450 1A1, over 20 µM; against Cytochrome P450 3A4, over 20 µM; against Cytochrome P450 2C9, over 20 µM; at Cytochrome P450 1B1 it was over 20 µM; against Cytochrome P450 1A2 it was over 20 µM. The compound further registered an IC50 at Cytochrome P450 2C19 of over 20 µM.
Turning to `COc1ccc(/C=C/C(=O)c2ccc[nH]2)cc1Br`, the half-maximal inhibitory concentration (IC50) is 13 µM against Cytochrome P450 2D6; over 20 µM against Cytochrome P450 1A1; over 20 µM at Cytochrome P450 3A4; over 20 µM against Cytochrome P450 2C9; over 20 µM against Cytochrome P450 1B1; 17 µM on Cytochrome P450 1A2. The compound further showed an IC50 on Cytochrome P450 2C19 of over 20 µM.
Consider `COc1cc(/C=C/C(=O)c2ccc[nH]2)cc(OC)c1OC`, for which the IC50 is 14 µM against Cytochrome P450 2D6; over 20 µM against Cytochrome P450 1A1; over 20 µM on Cytochrome P450 3A4; over 20 µM on Cytochrome P450 2C9; over 20 µM against Cytochrome P450 1B1; 15 µM on Cytochrome P450 1A2. The compound also gave an IC50 against Cytochrome P450 2C19 of over 20 µM.
For `O=C(/C=C/c1ccc(Br)cc1)c1ccc[nH]1`, the IC50 at Cytochrome P450 2D6 is 18 µM; against Cytochrome P450 1A1 it was over 20 µM; at Cytochrome P450 3A4, over 20 µM; against Cytochrome P450 2C9 it was over 20 µM; on Cytochrome P450 1B1, 8.5 µM; at Cytochrome P450 1A2 it was 13.2 µM. The IC50 on Cytochrome P450 2C19 was over 20 µM.
Consider `O=C(/C=C/c1cccc(Cl)c1)c1ccc[nH]1`, for which the IC50 against Cytochrome P450 2D6 is 14 µM; against Cytochrome P450 1A1 it was 16 µM; against Cytochrome P450 3A4, over 20 µM; against Cytochrome P450 2C9 it was over 20 µM; against Cytochrome P450 1B1 it was 1.5 µM; at Cytochrome P450 1A2 it was 12 µM. Moreover, on Cytochrome P450 2C19, the IC50 was over 20 µM.
With `CN(C)c1ccc(/C=C/C(=O)c2ccc[nH]2)cc1`, the half-inhibitory concentration (IC50) against Cytochrome P450 2D6 was 13 µM; against Cytochrome P450 1A1, over 20 µM; at Cytochrome P450 3A4 it was over 20 µM; at Cytochrome P450 2C9, over 20 µM; against Cytochrome P450 1B1 it was over 20 µM; at Cytochrome P450 1A2, 12.5 µM. For the same compound, the IC50 against Cytochrome P450 2C19 is over 20 µM.
Turning to `COc1cccc(/C=C/C(=O)c2ccc[nH]2)c1OC`, the half-maximal inhibitory concentration (IC50) was 16 µM on Cytochrome P450 2D6; 5.2 µM on Cytochrome P450 1A1; over 20 µM at Cytochrome P450 3A4; over 20 µM against Cytochrome P450 2C9; over 20 µM against Cytochrome P450 1B1; 9.2 µM on Cytochrome P450 1A2. On Cytochrome P450 2C19, this compound yielded a 50% inhibitory concentration (IC50) of over 20 µM.
In the case of `COc1ccc(/C=C/C=C/C(=O)c2ccc[nH]2)cc1`, the IC50 at Cytochrome P450 2D6 was 18 µM; against Cytochrome P450 1A1 it was over 20 µM; at Cytochrome P450 3A4, over 20 µM; against Cytochrome P450 2C9 it was over 20 µM; against Cytochrome P450 1B1, over 20 µM; against Cytochrome P450 1A2, 13 µM. On Cytochrome P450 2C19, this compound showed an IC50 of over 20 µM.
As to `COc1ccc(/C=C/C(=O)c2ccc[nH]2)c(OC)c1`, the IC50 at Cytochrome P450 2D6 was 11 µM; at Cytochrome P450 1A1, 11.8 µM; on Cytochrome P450 3A4, over 20 µM; at Cytochrome P450 2C9 it was over 20 µM; on Cytochrome P450 1B1, over 20 µM; at Cytochrome P450 1A2, 10 µM. Besides, on Cytochrome P450 2C19, the half-inhibitory concentration (IC50) is over 20 µM.
Turning to `O=C(/C=C/c1ccc2c(c1)OCO2)c1ccc[nH]1`, the concentration for half-maximal inhibition (IC50) on Cytochrome P450 2D6 is 14 µM; against Cytochrome P450 1A1, 5.8 µM; against Cytochrome P450 3A4 it was over 20 µM; against Cytochrome P450 2C9, over 20 µM; at Cytochrome P450 1B1, over 20 µM; against Cytochrome P450 1A2, 9.7 µM. The IC50 against Cytochrome P450 2C19 was over 20 µM.
